Laboratory results published in patent US12364692B2, “Topical naloxone compositions and methods for using the same” (Teikoku Pharma USA, Inc., priority 2020, dated 2025).

Columns and labels:
[1] = control and treatments other than hydrogen peroxide (5N hydrochloric acid, 5N sodium hydroxide 18 hours, 60° C. 2 weeks); peak areas relative to total area
[2] = tested on: mice (HOS:HR-1 hairless) with atopic dermatitis skin symptoms; experiment: Scratching behavior in hairless mouse model of atopic dermatitis pruritis; format: in vivo; details: FIGS. 3-6; topical 0.1 ml/day, days 34, 41, 48, 55
Method: Atopic dermatitis skin symptoms were induced by providing a special feed diet 10 to mice (HOS:HR-1 hairless). All groups were treated with daily 0.1 ml/day of ointment over the entire back of each mouse for three consecutive weeks starting on Day 34. Mice were video recorded predose (baseline activity) for 30 minutes and observed for scratching for a period of one hour post application on days 34, 35, 38, 41, 45, 48, and 55. The topical naloxone active agent composition was allowed to dry 15 for one (1) hour prior to video recording of scratching behavior. Scratching behavior was monitored every 5 minutes for an hour where the number of scratching bouts includes one or more of the following actions: hind leg raised, scratching the back or lowering the leg to the floor. Cumulative duration of scratching behavior was also determined. Trans-epidermal water loss (TEWL) measured on Days 34, 48, 55 20 (Phase 2) and Days 33 and 55 (Phase 3) was also measured.

SMILES	total related substances [1]	cumulative scratching duration [2]	mean scratching bouts [2]
C=CCN1CC[C@]23c4c5ccc(O)c4O[C@H]2C(=O)CC[C@@]3(O)[C@H]1C5 [naloxone drug substance, naloxone]	below 1%		
C=CCN1CC[C@]23c4c5ccc(O)c4O[C@H]2C(=O)CC[C@@]3(O)[C@H]1C5 [naloxone free base, naloxone]		decreased	decreased
